Consider 2 compounds from patent US11919912B2, “Modulators of methyl modifying enzymes, compositions and uses thereof” (Constellation Pharmaceuticals, Inc., priority 2018, dated 2024).

Assay [1] has as its target T1, PRC2 containing wt EZH2 (Homo sapiens, UniProt Q15910).
T1 construct: made in house
The assay is described as follows: EZH2 biochemical assay (IC50), incorporation of 3H-SAM into a biotinylated H3 peptide. Conditions: 30 pM PRC2 (wt EZH2, pentameric complex), pre-incubated 3-5 h, reaction 18-22 h. Here is the method:
EZH2 biochemical assay (IC50): Compound potencies were assessed through incorporation of ^3H-SAM into a biotinylated H3 peptide. […] Quenching was accomplished by addition of 20 μl of STOP solution (50 mM Tris (pH 8.5), 200 mM EDTA, 2 mM SAH). 35 μl of the quenched solution was transferred to streptavidin coated FlashPlates (PerkinElmer), incubated 1-2 h, washed, and read in a TopCount Reader (PerkinElmer).

In assay [2] the test system is H3K27me3 in Hela cells. The assay is described as follows: H3K27me3 Alpha Hela Assay (AlphaLISA). In kind it is cell-based. Conditions: Homo sapiens, 72 hrs. Here is the method: H3K27me3 Alpha Hela Assay (AlphaLISA). Ten different doses of each test compound (in a series of 3-fold dilutions) were plated in duplicate 384-well tissue culture treated plates (Catalog #6007680; Perkin Elmer, Waltham, MA). Hela cells grown in culture were trypsinized and counted using a Countess® cell counter (Catalog #C10281; Life Technologies, Grand Island, NY). Cell were diluted to 67,000 cells per mL in10% DMEM (Catalog #10569-010 Life Technologies, Grand Island, NY) and 15 μL (1,000 cells) were plated into each well using the Biotek MicroFlo™ Select Dispenser (BioTek Instruments, Inc. Vermont, USA),) of the 384-well plate. Plates were incubated at 37° C./5% CO2 for 72 hrs. One of the duplicate plates was processed for HeLa assay and the other for viability. […] The plates were then read using an EnVision-Alpha Reader (model #2104 Perkin Elmer; Waltham, MA).
Cell viability was assayed by adding 15 μL of Cell Titer Glo ((Catalog #G9241 Promega Madison, WI) to each well with cells with media. The plates were incubated at RT for 15-20 minutes on a plate shaker at low speed. The plates were then read using an EnVision-Alpha Reader (model #2104 Perkin Elmer; Waltham, MA).
For orientation: Alpha assays give light when donor and acceptor beads are brought close together.

Assay [3] concerns Karpas-422 cell lines. Kind of assay: Karpas-422 viability assay (Cell Titer-Glo). Conditions: Homo sapiens, Cell Titer-Glo on Day 8, cells split every 4 days. In kind it is cell-based. How it is done:
Karpas-422 cell lines were obtained from DSMZ (Braunschweig, Germany) and were grown in RPMI-1640 media. All media contained 10% fetal bovine serum (FBS) and 1% penicillin/streptomycin (Invitrogen). 20K cells per well were plated onto 96 well compound coated plates. Cells were split and seeded at original plating density (based on the DMSO well counts) every 4 days into plates containing fresh EZH2 inhibitors. Relative cell numbers were assessed by Cell Titer-Glo luminescent cell viability assay (Promega) on Day 8. GraphPad Prism 5 was used for curve fitting and GI50 values were reported.

T1 sequence (Q15910 whole entry): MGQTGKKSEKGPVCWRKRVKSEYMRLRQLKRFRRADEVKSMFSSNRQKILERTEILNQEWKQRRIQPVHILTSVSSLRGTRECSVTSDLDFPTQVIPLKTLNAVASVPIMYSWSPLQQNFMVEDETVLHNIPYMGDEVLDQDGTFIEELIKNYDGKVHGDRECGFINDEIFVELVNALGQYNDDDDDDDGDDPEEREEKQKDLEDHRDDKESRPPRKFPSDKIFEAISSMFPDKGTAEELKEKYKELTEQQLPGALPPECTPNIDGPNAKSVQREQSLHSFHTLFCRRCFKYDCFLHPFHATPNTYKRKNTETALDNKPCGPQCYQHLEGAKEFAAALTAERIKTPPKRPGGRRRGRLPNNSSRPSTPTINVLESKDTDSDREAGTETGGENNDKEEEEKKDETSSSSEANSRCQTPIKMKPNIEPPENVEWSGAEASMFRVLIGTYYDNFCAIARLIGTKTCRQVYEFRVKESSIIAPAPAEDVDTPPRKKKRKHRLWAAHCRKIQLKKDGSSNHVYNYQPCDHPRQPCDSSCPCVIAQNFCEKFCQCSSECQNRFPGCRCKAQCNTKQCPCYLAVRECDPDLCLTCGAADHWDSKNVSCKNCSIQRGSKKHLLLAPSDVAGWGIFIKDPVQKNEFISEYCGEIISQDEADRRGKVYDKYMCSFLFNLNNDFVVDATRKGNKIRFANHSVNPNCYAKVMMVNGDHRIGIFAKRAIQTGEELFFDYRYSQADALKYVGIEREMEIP
T1 sequence (O75530 whole entry partner): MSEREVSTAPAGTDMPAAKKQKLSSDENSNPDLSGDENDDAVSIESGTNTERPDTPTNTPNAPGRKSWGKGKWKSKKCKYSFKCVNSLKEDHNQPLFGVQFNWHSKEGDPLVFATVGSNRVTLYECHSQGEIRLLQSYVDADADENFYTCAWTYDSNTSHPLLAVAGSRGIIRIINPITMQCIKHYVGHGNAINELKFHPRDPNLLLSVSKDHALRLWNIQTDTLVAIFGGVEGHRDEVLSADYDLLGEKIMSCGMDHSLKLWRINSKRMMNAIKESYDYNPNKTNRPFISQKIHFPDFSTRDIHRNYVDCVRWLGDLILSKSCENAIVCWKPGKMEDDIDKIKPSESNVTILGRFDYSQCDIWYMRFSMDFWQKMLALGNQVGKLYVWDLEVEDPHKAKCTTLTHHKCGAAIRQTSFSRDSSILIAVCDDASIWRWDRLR
T1 sequence (Q15022 whole entry partner): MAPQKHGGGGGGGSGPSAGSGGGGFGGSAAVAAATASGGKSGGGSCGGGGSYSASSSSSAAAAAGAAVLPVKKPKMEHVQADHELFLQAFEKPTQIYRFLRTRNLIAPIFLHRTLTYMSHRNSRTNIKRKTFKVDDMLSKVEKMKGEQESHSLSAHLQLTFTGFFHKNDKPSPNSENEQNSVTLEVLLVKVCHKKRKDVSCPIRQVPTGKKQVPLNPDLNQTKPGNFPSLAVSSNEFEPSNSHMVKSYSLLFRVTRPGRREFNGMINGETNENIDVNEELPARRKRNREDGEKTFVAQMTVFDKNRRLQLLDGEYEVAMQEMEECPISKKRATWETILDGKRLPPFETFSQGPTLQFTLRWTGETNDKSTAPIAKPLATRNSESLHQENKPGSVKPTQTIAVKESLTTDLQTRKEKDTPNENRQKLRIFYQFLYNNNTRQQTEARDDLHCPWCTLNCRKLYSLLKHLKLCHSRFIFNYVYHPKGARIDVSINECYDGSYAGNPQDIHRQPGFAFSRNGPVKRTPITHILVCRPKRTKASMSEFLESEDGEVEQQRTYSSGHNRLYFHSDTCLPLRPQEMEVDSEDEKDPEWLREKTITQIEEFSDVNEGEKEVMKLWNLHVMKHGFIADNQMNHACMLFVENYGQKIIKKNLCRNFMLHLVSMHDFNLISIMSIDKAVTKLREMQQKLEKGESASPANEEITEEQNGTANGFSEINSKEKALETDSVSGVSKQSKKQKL
T1 sequence (Q09028 whole entry partner): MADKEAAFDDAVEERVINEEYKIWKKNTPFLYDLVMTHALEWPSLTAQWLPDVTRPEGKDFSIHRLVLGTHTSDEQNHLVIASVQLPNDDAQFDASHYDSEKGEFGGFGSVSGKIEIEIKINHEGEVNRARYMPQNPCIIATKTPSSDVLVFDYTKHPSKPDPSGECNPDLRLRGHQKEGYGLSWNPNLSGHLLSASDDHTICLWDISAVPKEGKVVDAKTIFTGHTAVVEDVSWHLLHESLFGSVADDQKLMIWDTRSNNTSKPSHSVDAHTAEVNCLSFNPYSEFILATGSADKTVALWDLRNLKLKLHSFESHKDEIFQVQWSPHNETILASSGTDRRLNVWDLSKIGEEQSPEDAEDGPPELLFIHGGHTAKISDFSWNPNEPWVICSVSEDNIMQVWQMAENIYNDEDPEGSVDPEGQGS
T1 sequence (Q6ZN18 whole entry partner): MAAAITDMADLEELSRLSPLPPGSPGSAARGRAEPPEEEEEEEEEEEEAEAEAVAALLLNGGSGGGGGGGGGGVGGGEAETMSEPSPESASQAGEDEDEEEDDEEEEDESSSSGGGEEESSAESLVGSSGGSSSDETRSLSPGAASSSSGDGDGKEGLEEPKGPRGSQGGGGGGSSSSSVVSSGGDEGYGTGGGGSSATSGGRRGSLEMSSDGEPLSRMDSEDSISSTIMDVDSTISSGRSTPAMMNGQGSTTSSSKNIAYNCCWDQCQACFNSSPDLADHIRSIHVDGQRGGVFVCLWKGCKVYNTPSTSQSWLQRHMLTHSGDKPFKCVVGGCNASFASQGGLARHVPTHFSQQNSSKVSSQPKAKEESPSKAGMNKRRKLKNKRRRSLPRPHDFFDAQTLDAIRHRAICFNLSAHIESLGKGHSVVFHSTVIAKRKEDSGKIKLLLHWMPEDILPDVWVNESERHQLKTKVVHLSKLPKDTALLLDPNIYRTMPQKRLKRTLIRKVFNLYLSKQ

The IC50 is the midpoint of a concentration-inhibition curve. The low end stands for higher potency, the high end for lower potency. Regarding `CSc1cc(C)[nH]c(=O)c1Cn1ccc2c(Cl)c3c(c(C)c2c1=O)OC(C)([C@H]1CC[C@H](N(C)C)CC1)O3` (mixture of isomers) [Example 2, 9-Chloro-2-(Trans-4-(Dimethylamino)Cyclohexyl)-2,4-Dimethyl-6-((6-Methyl-4-(Methylthio)-2-Oxo-1,2-Dihydropyridin-3-Yl)Methyl)-[1,3]Dioxolo[4,5-g]Isoquinolin-], the IC50 in assay [1] lay within 0.061 to 0.073 nM. A word on the EC50: it is the concentration giving half of the maximal effect. What is called GI50 is the concentration that inhibits growth by half. A high value points to less potent growth inhibition. `CSc1cc(C)[nH]c(=O)c1CN1CCc2c(Cl)c3c(c(C)c2C1=O)OC(C)([C@H]1CC[C@H](N(C)C)CC1)O3` (single isomer, unassigned) [Example 1, Peak 1, 9-Chloro-2-(Trans-4-(Dimethylamino)Cyclohexyl)-2,4-Dimethyl-6-((6-Methyl-4-(Methylthio)-2-Oxo-1,2-Dihydropyridin-3-Yl)Methyl)-7,8-Dihydro-[1,3]Dioxolo[4,5-g]Isoquinolin-5(6H)-One] came in with a half-maximal effective concentration (EC50) in assay [2] of 0.849 to 1.13 nM. Moreover, it took 5.7 nM to inhibit growth in assay [3] by half (GI50).
